Target: unphosphorylated-BTK kinase domain (UP-BTK), GST-tagged human BTK (389-659aa) (Homo sapiens (Human), UniProt Q06187)
Experiment: BTK kinase Lanthascreen binding assay
Settings: Lanthascreen tracer competition, 60 minutes incubation, pIC50 = negative log of the IC50 in molar
Method in brief: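 Compound binding to the unphosphorylated kinase domain was monitored by displacement of a fluorescently labelled tracer in a Lanthascreen format. Potency is given as pIC50, the negative log of the molar IC50.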

unphosphorylated-BTK kinase domain (UP-BTK), GST-tagged human BTK (389-659aa), sequence (Q06187 389-659): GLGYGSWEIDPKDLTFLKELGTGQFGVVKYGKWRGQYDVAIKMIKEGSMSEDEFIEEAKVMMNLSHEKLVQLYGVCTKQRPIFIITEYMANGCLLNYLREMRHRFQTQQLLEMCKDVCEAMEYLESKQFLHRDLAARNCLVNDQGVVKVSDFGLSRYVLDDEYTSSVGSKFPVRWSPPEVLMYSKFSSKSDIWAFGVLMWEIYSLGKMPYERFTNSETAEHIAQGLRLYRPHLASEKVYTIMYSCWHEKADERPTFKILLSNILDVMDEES

Structure (SMILES)	BTK_I_binding pIC50	IC50 (read-out: BTK_I_binding pIC50 (converted)) [nM]
N#C/C(=C\C1CC1)C(=O)N1CCCC(NC(=O)c2sc3nccc4c3c2NC(=O)N4c2cccc(Oc3ccccc3)c2)C1 (stereo not shown) [Example 851, (E)-N-(1-(2-Cyano-3-cyclopropylacryloyl)piperidin-3-yl)-4-oxo-5-(3-phenoxyphenyl)-4,5-dihydro-3H-1-thia-3,5,8-triazaacenaphthylene-2-carboxamide]	7.5	
Cc1ccccc1N1C(=O)Nc2c(C(=O)N[C@@H]3CCCN(C(=O)/C(C#N)=C/C4CC4)C3)sc3nccc1c23 [Example 854, (R,E)-N-(1-(2-Cyano-3-cyclopropylacryloyl)piperidin-3-yl)-4-oxo-5-(o-tolyl)-4,5-dihydro-3H-1-thia-3,5,8-triazaacenaphthylene-2-carboxamide]	7.5	
Cc1cc(Oc2cccc(COc3ccccc3C#N)c2)ccc1N1C(=O)Nc2c(C(=O)NC3CCN(C)CC3)sc3nccc1c23 [Example 855, 5-(4-(3-((2-Cyanophenoxy)methyl)phenoxy)-2-methylphenyl)-N-(1-methylpiperidin-4-yl)-4-oxo-4,5-dihydro-3H-1-thia-3,5,8-triazaacenaphthylene-2-carboxamide]	7.5	
COc1ccccc1Oc1ccc(N2C(=O)Nc3c(C(=O)NC4CCCN(C(=O)/C(C#N)=C/C5CC5)C4)sc4nccc2c34)c(C)c1 (stereo not shown) [Example 856, (E)-N-(1-(2-Cyano-3-cyclopropylacryloyl)piperidin-3-yl)-5-(4-(2-methoxyphenoxy)-2-methylphenyl)-4-oxo-4,5-dihydro-3H-1-thia-3,5,8-triazaacenaphthylene-2-carboxamide]	7.5	
Cc1cc(Oc2cccc(COc3ccccc3C#N)c2)ccc1N1C(=O)Nc2c(C(=O)NC3CCNCC3)sc3nccc1c23 [Example 857, 5-(4-(3-((2-Cyanophenoxy)methyl)phenoxy)-2-methylphenyl)-4-oxo-N-(piperidin-4-yl)-4,5-dihydro-3H-1-thia-3,5,8-triazaacenaphthylene-2-carboxamide]	7.5	
O=C(N[C@@H]1CCCNC1)c1sc2nccc3c2c1NC(=O)N3c1ccc(Oc2ccccc2)cc1 [Example 860, (R)-4-oxo-5-(4-phenoxyphenyl)-N-(piperidin-3-yl)-4,5-dihydro-3H-1-thia-3,5,8-triazaacenaphthylene-2-carboxamide]	7.4	
Cc1cc(Oc2cccc(COc3ccccc3C#N)c2)ccc1N1C(=O)Nc2c(C(=O)N[C@@H]3CCCN(C(=O)/C(C#N)=C/C4CC4)C3)sc3nccc1c23 [Example 861, (R,E)-N-(1-(2-Cyano-3-cyclopropylacryloyl)piperidin-3-yl)-5-(4-(3-((2-cyanophenoxy)methyl)phenoxy)-2-methylphenyl)-4-oxo-4,5-dihydro-3H-1-thia-3,5,8-triazaacenaphthylene-2-carboxamide]	7.3	
COc1ccc(N2C(=O)Nc3c(C(=O)N[C@@H]4CCCN(C(=O)/C(C#N)=C/C5CC5)C4)sc4nccc2c34)c(C)c1 [Example 862, (R,E)-N-(1-(2-Cyano-3-cyclopropylacryloyl)piperidin-3-yl)-5-(4-methoxy-2-methylphenyl)-4-oxo-4,5-dihydro-3H-1-thia-3,5,8-triazaacenaphthylene-2-carboxamide]	7.3	

The next lines start with the values.

BTK_I_binding pIC50	IC50 (read-out: BTK_I_binding pIC50 (converted)) [nM]	Structure (SMILES)
7.6		C=CC(=O)N1CC[C@@H](NC(=O)c2sc3nccc4c3c2NC(=O)N4c2ccc(Oc3cccc(COc4ccccc4C#N)c3)cc2C)C1 [Example 847, (R)—N-(1-Acryloylpyrrolidin-3-yl)-5-(4-(3-((2-cyanophenoxy)methyl)phenoxy)-2-methylphenyl)-4-oxo-4,5-dihydro-3H-1-thia-3,5,8-triazaacenaphthylene-2-carboxamide]
7.6		CN[C@H](C)C(=O)N1CCC[C@@H](NC(=O)c2sc3nccc4c3c2NC(=O)N4c2ccc(Oc3ccccc3)cc2C)C1 [Example 848, 5-(2-Methyl-4-phenoxyphenyl)-N—((R)-1-((R)-2-(methylamino)propanol)piperidin-3-yl)-4-oxo-4,5-dihydro-3H-1-thia-3,5,8-triazaacenaphthylene-2-carboxamide]
7.6		Cc1cc(Oc2ccccc2)ccc1N1C(=O)Nc2c(C(=O)N[C@@H]3CCCN(C(=O)[C@H]4CCN4)C3)sc3nccc1c23 [Example 849, N—((R)-1-((R)-Azetidine-2-carbonyl)piperidin-3-yl)-5-(2-methyl-4-phenoxyphenyl)-4-oxo-4,5-dihydro-3H-1-thia-3,5,8-triazaacenaphthylene-2-carboxamide]
7.6		Cc1cc(Oc2ccccc2)ccc1N1C(=O)Nc2c(C(=O)N[C@@H]3CCCN(C(=O)/C(C#N)=C/C4CC4)C3)sc3nccc1c23 [Example 850, (R,E)-N-(1-(2-Cano-3-cyclopropylacryloyl)piperidin-3-yl)-5-(2-methyl-4-phenoxyphenyl)-4-oxo-4,5-dihydro-3H-1-thia-3,5,8-triazaacenaphthylene-2-carboxamide]
	31.6	Cc1cc(Oc2ccccc2)ccc1N1C(=O)Nc2c(C(=O)N[C@@H]3CCCN(C#N)C3)sc3nccc1c23 [Example 852, (R)—N-(1-Cyanopiperidin-3-yl)-5-(2-methyl-4-phenoxyphenyl)-4-oxo-4,5-dihydro-3H-1-thia-3,5,8-triazaacenaphthylene-2-carboxamide]
7.5		CN[C@@H](C)C(=O)N1CCC[C@@H](NC(=O)c2sc3nccc4c3c2NC(=O)N4c2ccc(Oc3ccccc3)cc2C)C1 [Example 853, 5-(2-Methyl-4-phenoxyphenyl)-N—((R)-1-((S)-2-(methylamino)propanol)piperidin-3-yl)-4-oxo-4,5-dihydro-3H-1-thia-3,5,8-triazaacenaphthylene-2-carboxamide]
7.5		Cc1cc(Oc2ccccc2)ccc1N1C(=O)Nc2c(C(=O)NC3CCN(C)CC3)sc3nccc1c23 [Example 858, 5-(2-Methyl-4-phenoxyphenyl)-N-(1-methylpiperidin-4-yl)-4-oxo-4,5-dihydro-3H-1-thia-3,5,8-triazaacenaphthylene-2-carboxamide]
7.4		Cc1ccc(Oc2ccccc2)cc1N1C(=O)Nc2c(C(=O)N[C@@H]3CCCN(C(=O)/C(C#N)=C/C4CC4)C3)sc3nccc1c23 [Example 859, (R,E)-N-(1-(2-Cyano-3-cyclopropylacryloyl)piperidin-3-yl)-5-(2-methyl-5-phenoxyphenyl)-4-oxo-4,5-dihydro-3H-1-thia-3,5,8-triazaacenaphthylene-2-carboxamide]
7.3		C=CC(=O)N1CCC[C@H](NC(=O)c2sc3nccc4c3c2NC(=O)N4c2ccc(Oc3ccccc3)cc2C)C1 [Example 863, (S)—N-(1-Acryloylpiperidin-3-yl)-5-(2-methyl-4-phenoxyphenyl)-4-oxo-4,5-dihydro-3H-1-thia-3,5,8-triazaacenaphthylene-2-carboxamide]
7.3		C=CC(=O)N1CC[C@H](NC(=O)c2sc3nccc4c3c2NC(=O)N4c2ccc(Oc3ccccc3)cc2C)C1 [Example 864, (S)—N-(1-Acryloylpyrrolidin-3-yl)-5-(2-methyl-4-phenoxyphenyl)-4-oxo-4,5-dihydro-3H-1-thia-3,5,8-triazaacenaphthylene-2-carboxamide]
7.3		Cc1cc(Oc2ccccc2)ccc1N1C(=O)Nc2c(C(=O)NC3CCNCC3)sc3nccc1c23 [Example 865, 5-(2-Methyl-4-phenoxyphenyl)-4-oxo-N-(piperidin-4-yl)-4,5-dihydro-3H-1-thia-3,5,8-triazaacenaphthylene-2-carboxamide]
